Test results taken from patent US11339142B2, “Di-substituted pyrazole compounds for the treatment of diseases” (FGH BIOTECH, INC., priority 2016, dated 2022).

Tests used:
SCD1 expression = assay: Quantitative PCR (qPCR) inhibition assay, SCD1 mRNA expression in Hep G2 cells; format: cell-based; conditions: Homo sapiens, HepG2 cells, 24 hours incubation, mRNA by qPCR, read-out: SCD1 Inhibition Percentage (%) at 1 μM
Description: Hep G2 cells were obtained from ATCC and grown in DMEM supplemented with 10% FBS in a 5% CO2 incubator at 37° C. For the assay the cells were plated in 96 well plates at a concentration of 75,000 cells/well in DMEM with 5% FBS. The compounds were serially diluted in DMSO from 30 to 0.1 mM and then diluted 1:1000 in growth medium. The medium was added to the cells in duplicate 24 hours after plating. After 24 hours of incubation the RNA was isolated from the cells using the RNAqueous®-96 Total RNA Isolation Kit (Ambion). The eluted RNA was reverse transcribed using the Cells-to-Ct kit reverse transcriptase (Ambion). For the quantitative PCR the cDNA was analyzed using the Power SYBR® Green PCR Master Mix (Applied Biosystems) and gene specific primers. The reaction was run on an ABI7300 thermocycler and the instrument software was used to determine the Ct values. The fold change of mRNA expression relative to the vehicle control was calculated using the method by Livak. Primer sequence was as follows: SCD1, 5′-[…]-3′/5′-[…]-3′.
(§1) All data for Biological Examples 1a and 1b were measured in HepG2 cells. % inhibition of SCD1 expression, % inhibition of PCSK9 expression, and PCSK9 IC50 data are provided in Table 1. NA means the compound was not active at the concentration tested.

PCSK9 expression = assay: Quantitative PCR (qPCR) inhibition assay, PCSK9 mRNA expression in Hep G2 cells; format: cell-based; conditions: Homo sapiens, HepG2 cells, 24 hours incubation, mRNA by qPCR; for inhibition at 0.32 µM: 320 nM, read-out: PCSK9 Inhibition Percentage (%) at 320 nM
Description: Hep G2 cells were obtained from ATCC and grown in DMEM supplemented with 5% FBS in a 5% CO2 incubator at 37° C. For the assay the cells were plated in 24 well plates at a concentration of 100,000 cells/well in DMEM with 5% FBS. The compounds were serially diluted in DMSO from 0.1 to 20 mM and then diluted 1:1000 in growth medium. The medium was added to the cells in duplicate 24 hours after plating. After 24 hours of incubation the RNA was isolated from the cells using the illustra RNAspin Mini kit (GE Healthcare). For the quantitative PCR the RNA was analyzed using the Power SYBR® Green PCR Master Mix (Applied Biosystems) and gene specific primers. The reaction was run on a StepOnePlus Real-Time PCR System (Thermo Fisher Scientific) and the instrument software was used to determine the Ct values. The fold change of mRNA expression relative to the vehicle control was calculated. Primer sequence was as follows: PCSK9, 5′-[…]-3′/5′-[…]-3′.
as §1

Row | SMILES | IC50 (PCSK9 expression) [nM] | inhibition at 1 µM (SCD1 expression) [%] | inhibition at 0.32 µM (PCSK9 expression) [%]
1 | CCCn1cc(-n2cc(-c3ccc(O[C@H](C)CC)nc3C)cn2)ccc1=O [Example 10] | – | ≥ 40 | ≥ 40
2 | CCCn1cc(-n2cc(-c3ccc(S(=O)(=O)CC(C)C)cc3Cl)cn2)ccc1=O [Example 18] | – | 10 to 40 | 10 to 40

More lines, main results first:

Row | IC50 (PCSK9 expression) [nM] | SMILES | inhibition at 1 µM (SCD1 expression) [%] | inhibition at 0.32 µM (PCSK9 expression) [%]
3 | 150 to 600 | CCCn1cc(-n2cc(-c3ccc(S(=O)(=O)C(C)C)cc3Cl)cn2)ccc1=O [Example 17] | ≥ 40 | ≥ 40
4 | 150 to 600 | CCCn1cc(-n2cc(-c3ccc(S(=O)(=O)C4CCC4)cc3F)cn2)ccc1=O [Example 22] | ≥ 40 | –
5 | ≤ 150 | CCCn1cc(-n2cc(-c3ccc(S(=O)(=O)C4CCC4)cc3Cl)cn2)ccc1=O [Example 23] | ≥ 40 | –
